Measured values published in US10092620B2, “Uses of cyclic peptides for treating and preventing atherosclerosis” (THE SCRIPPS RESEARCH INSTITUTE, priority 2013, dated 2018).
“Also recorded” adds a separate entry of the source. Non-standard residues stand in square brackets, D forms with d. Residues, ends and D or L forms follow the SMILES beside them.

Legend:
LDLr-null mice = experiment: plasma lipoprotein and lipoprotein cholesterol profiles (FPLC of pooled plasma); type: in vivo, mouse; details: 2 weeks oral ~25 mg/kg/day
Method: Effect of cyclic peptides on plasma lipoprotein and lipoprotein cholesterol profiles: Pooled plasma (240 μL total, 30 μL from each, n=8 mice per group) from the two-week blood draw was used for fast protein liquid chromatography (FPLC) analysis. Lipoproteins were separated by using 3 Superdex 200 10/30 columns connected in series (GE Healthcare). The plasma was centrifuged at 11,000 rpm for 10 min at room temperature to remove particulates (floating material was gently mixed into liquid before removing the supernatant for FPLC injection). 200 μL of the pooled plasma was injected on the system eluted with 10 mM tris-HCl buffer, pH 7.4, containing 1 mM EDTA and 150 mM NaCl; a flow rate of 0.5 ml/min and fraction size of 0.5 mL were used. Total cholesterol in the FPLC fractions was measured using the Amplex® red cholesterol assay kit (No. A12216, Life Technologies) according to the manufacturer's instructions. 20 μL of selected HDL fractions (as indicated in FIG. 6) were mixed with 4 μL of 6× native loading buffer (375 mM tris, pH 6.8, 0.06% bromophenol, 60% glycerol), out of which 20 μL was applied to non-denaturing gel electrophoresis and then immunoblotted for mouse apoA-I as described above.

[1] = system: mouse macrophage J774 cells; experiment: cholesterol efflux from mouse macrophage cells incubated with peptide-treated human plasma; type: cell-based
Method: Selected cyclic D,L-α-peptides were further evaluated for their ability to promote cellular cholesterol efflux from mouse macrophage J774 cells. A main factor for HDL anti-atherogenicity is its role in reverse cholesterol transport, of which cellular cholesterol efflux is a critical component. To measure efflux mediated by the cyclic D,L-α-peptides, cholesterol-laden cells were incubated with peptide-treated plasma for 4 h, after which the level of cholesterol effluxed to the media was measured as described in Sankaranarayanan et al., J. Lipid Res. 52, 2332-2340, 2011.
Preparation of labeling medium: These procedures were modified from that reported in Sankaranarayanan et al., J. Lipid Res. 52, 2332-2340, 2011. The labeling medium was prepared by complexing the unlabeled cholesterol and BODIPY-cholesterol (20% of the total cholesterol) with methyl-β-cyclodextrin (CD) at a molar ratio of 1:40 (total cholesterol/CD). Unlabeled cholesterol and BODIPY-cholesterol were dissolved in chloroform and dried in a round bottom flask by rotor-evaporation in the dark to form a thin film. The cholesterol mixture was solubilized by adding 20 mM CD in MEM-HEPES buffer. The suspension was sonicated in a water bath (37° C.) for at 1 h, stirred at 37° C. for 3 h, filtered using a 0.45-μm syringe filter, and diluted with an equal volume of MEM-HEPES buffer containing 4 μg/mL Sandoz ACAT (acyl-CoA:cholesterol acyltransferase) inhibitor (Sigma). The final concentrations of BODIPY-cholesterol, unlabeled cholesterol, CD, and ACAT inhibitor in the labeling medium were 0.025 mM, 0.1 mM, 10 mM, and […], respectively.
Preparation of efflux medium: Just before the initiation of the efflux assays, the human plasma frozen at −80° C. was thawed, and 80 μL of plasma was incubated with 20 μL of cyclic peptide stocks (peptide stocks were 1-3 mg/mL in 10% sucrose) or the vehicle (10% sucrose) at 37° C. for 30 min. The treated plasma samples (100 μL) were then incubated with 25% PEG 8000 solution in 200 mM glycine buffer, pH 8.5 (40 μL) to precipitate apoB-containing lipoproteins (Asztalos et al., J. Lipid Res. 46, 2246-2253, 2005). After a 15-min incubation, the precipitate was removed by high-speed centrifugation (13,000 rpm, 10 min, 4° C.), and the supernatant (60 μL) was immediately diluted with MEM-HEPES buffer (1.5 mL) to give ˜2% whole plasma. This solution, containing the peptide remodeled-HDL lipoprotein fraction as cholesterol acceptors, was used as the efflux medium.
Cholesterol efflux from mouse macrophage cells: Mouse macrophage J774A.1 cells (TIB-67; American Type Culture Collection, Manassas, Va.) were seeded in 12-well culture plate at 3×10^5 cells/mL and cultured to 80-90% confluency in DMEM with 10% FBS at 5% CO2. Cells were rinsed twice with MEM-HEPES, incubated for 1 h with 0.25 ml of labeling medium containing CD/BODIPY-cholesterol/unlabeled cholesterol and 2 μg/mL Sandoz ACAT inhibitor, followed by washing twice with MEM-HEPES. The cholesterol-laden cells were equilibrated for 18 h in DMEM containing 5% LPDS, […] Sandoz ACAT inhibitor, and 0.3 mM Cpt-cAMP. After equilibration, the cells were washed twice with MEM-HEPES and incubated with 0.25 mL of efflux media for 4 h. At the end of the incubation time, the efflux media was removed and centrifuged (1200 rpm, 10 min) to remove floating cells, and the fluorescence intensity of 100 μL cell-free media was recorded using a Tecan GENios plate reader (excitation 485 nm, emission 535 nm). The obtained signals were background subtracted using the signal from unlabeled cells. The cell monolayers were rinsed twice with ice-cold MEM-HEPES and solubilized with 0.25 mL 1% cholic acid by shaking on a plate shaker for at least 4 h at room temperature; then the fluorescence intensity of 100 μL cell lysate was recorded and background subtracted using the signal from unlabeled cell lysate. […]

[2] = listed as c[wLwReQeR], 25 mg/kg/day

## CC(C)C[C@@H]1NC(=O)[C@@H](Cc2c[nH]c3ccccc23)NC(=O)[C@H](CCCNC(=N)N)NC(=O)[C@@H](CCC(=O)O)NC(=O)[C@H](CCC(N)=O)NC(=O)[C@@H](CCC(=O)O)NC(=O)[C@H](CCCNC(=N)N)NC(=O)[C@@H](Cc2c[nH]c3ccccc23)NC1=O [SEQ ID NO:1, c[wLwReQeR]] (cyclo([dW]L[dW]R[dE]Q[dE]R))
LDLr-null mice; listed as 1, 25 mg/kg/day
  HDL particle size (FPLC lipoprotein profile): remodeled in favor of the smaller HDL particle sizes
  VLDL and LDL levels (FPLC lipoprotein profile): reduced levels of VLDL and LDL
LDLr-null mice; [2]
  HDL particle size (FPLC lipoprotein profile): modest shift to smaller (later eluting) particles
  VLDL and LDL levels (FPLC lipoprotein profile): decreases in the VLDL and LDL levels
LDLr-null mice; vs vehicle
  HDL levels (FPLC lipoprotein profile): comparable for both groups
[1]; J774 cells in the efflux assay
  toxicity based on the cellular morphology and density: did not appear to be toxic
[1]; J774 cells, 2% apoB-depleted peptide-treated human plasma, 4 h, FIG. 2b
  promotion of cellular cholesterol efflux (in words): clear concentration dependency; also recorded: only marginally less effective than the α-helical apoA-I mimetic 4F
